Laboratory results published in patent US20260028365A1 (BIOGEN MA INC., priority 2022, published 2026).
Counter-ions that a name gives are not always drawn.

How the values were obtained:
Tyk2 = Tyk2 (Homo sapiens (Human), UniProt P29597); test: pSTAT4 Cell Assay (MSD, NK92 cells); assay type: cell-based; conditions: MSD
JH2 domain of human Tyk2 = JH2 domain of human Tyk2 (Homo sapiens (Human), UniProt P29597); test: JH2 Biochemical Assay (TR-FRET probe displacement); assay type: binding; conditions: TR-FRET probe displacement, JH2 domain of human Tyk2
Chain of JH2 domain of human Tyk2 (P29597 575-876): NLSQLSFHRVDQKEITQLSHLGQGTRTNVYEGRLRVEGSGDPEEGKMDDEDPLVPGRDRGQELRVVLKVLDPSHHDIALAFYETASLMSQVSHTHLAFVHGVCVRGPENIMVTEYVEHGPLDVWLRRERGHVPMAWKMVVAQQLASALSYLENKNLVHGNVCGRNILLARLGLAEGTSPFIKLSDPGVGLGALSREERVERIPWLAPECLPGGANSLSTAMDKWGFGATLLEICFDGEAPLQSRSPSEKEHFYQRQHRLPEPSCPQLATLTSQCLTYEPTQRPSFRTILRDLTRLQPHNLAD

Chain of Tyk2 (P29597 whole entry, the tested form may be a part): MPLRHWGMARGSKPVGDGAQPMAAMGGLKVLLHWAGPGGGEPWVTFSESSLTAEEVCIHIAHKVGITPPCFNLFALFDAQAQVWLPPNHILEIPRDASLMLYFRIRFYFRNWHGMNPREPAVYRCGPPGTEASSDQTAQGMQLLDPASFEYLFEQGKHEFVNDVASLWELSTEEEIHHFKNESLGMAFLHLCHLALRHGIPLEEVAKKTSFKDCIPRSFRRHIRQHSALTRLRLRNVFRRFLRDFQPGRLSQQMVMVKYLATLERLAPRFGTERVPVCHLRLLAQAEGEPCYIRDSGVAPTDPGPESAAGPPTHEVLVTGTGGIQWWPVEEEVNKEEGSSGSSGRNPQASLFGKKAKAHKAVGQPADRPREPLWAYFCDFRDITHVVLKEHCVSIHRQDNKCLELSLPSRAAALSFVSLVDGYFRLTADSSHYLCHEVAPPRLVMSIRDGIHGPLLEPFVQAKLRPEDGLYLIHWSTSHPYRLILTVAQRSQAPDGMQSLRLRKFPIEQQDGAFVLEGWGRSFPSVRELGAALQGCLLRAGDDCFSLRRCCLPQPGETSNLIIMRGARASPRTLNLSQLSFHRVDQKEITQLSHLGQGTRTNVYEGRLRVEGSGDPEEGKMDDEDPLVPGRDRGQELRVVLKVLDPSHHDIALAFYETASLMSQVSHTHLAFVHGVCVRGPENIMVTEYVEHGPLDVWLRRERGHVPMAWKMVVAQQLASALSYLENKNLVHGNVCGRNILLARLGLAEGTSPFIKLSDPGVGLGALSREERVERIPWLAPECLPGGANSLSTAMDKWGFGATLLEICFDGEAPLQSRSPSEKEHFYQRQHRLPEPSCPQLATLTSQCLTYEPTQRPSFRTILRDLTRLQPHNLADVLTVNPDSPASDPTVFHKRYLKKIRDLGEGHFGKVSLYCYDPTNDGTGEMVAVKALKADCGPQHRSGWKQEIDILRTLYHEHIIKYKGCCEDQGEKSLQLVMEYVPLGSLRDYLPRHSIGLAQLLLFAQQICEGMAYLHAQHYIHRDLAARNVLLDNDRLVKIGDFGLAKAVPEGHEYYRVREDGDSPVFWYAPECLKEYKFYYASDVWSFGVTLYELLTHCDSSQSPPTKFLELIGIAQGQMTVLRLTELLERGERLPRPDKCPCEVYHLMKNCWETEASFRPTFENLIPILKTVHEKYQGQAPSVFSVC

Row | Structure (SMILES) | IC50 (Tyk2) [µM] | IC50 (JH2 domain of human Tyk2) [µM]
1 | CC(=O)Nc1cc(Nc2cccc(C3CCOC3)n2)c(-c2ccn(C)n2)cn1 (centres unmarked) [Example 208, N-(5-(1-methyl-1H-pyrazol-3-yl)-4-((6-(tetrahydrofuran-3-yl)pyridin-2-yl)amino)pyridin-2-yl)acetamide] | 0.01 to 0.1 | ≤ 0.01
2 | CO[C@H]1C[C@@H](Oc2cc(Nc3cc(NC(C)=O)ncc3-c3ccn(C)n3)nc(C(C)(F)F)c2)C1 [Example 211, N-(4-((6-(1,1-difluoroethyl)-4-((1s,3s)-3-methoxycyclobutoxy)pyridin-2-yl)amino)-5-(1-methyl-1H-pyrazol-3-yl)pyridin-2-yl)acetamide] | ≤ 0.01 | ≤ 0.01
3 | [2H]C([2H])([2H])C(=O)Nc1cc(Nc2cc(C)nc(C(C)(F)F)n2)c(-c2ccc(OC)nn2)cn1 [Example 213, N-(4-((2-(1,1-difluoroethyl)-6-methylpyrimidin-4-yl)amino)-5-(6-methoxypyridazin-3-yl)pyridin-2-yl)acetamide-2,2,2-d3] | ≤ 0.01 | ≤ 0.01
4 | CC(=O)Nc1cc(Nc2cccc(C(C)(C)F)n2)c(-c2ncc(F)cn2)cn1 [Example 215, N-(4-((6-(2-fluoropropan-2-yl)pyridin-2-yl)amino)-5-(5-fluoropyrimidin-2-yl)pyridin-2-yl)acetamide] | 0.01 to 0.1 | ≤ 0.01
5 | CC(=O)Nc1cc(Nc2ccnc(C(C)(C)F)c2)c(-c2ncc(F)cn2)cn1 [Example 216, N-(4-((2-(2-fluoropropan-2-yl)pyridin-4-yl)amino)-5-(5-fluoropyrimidin-2-yl)pyridin-2-yl)acetamide] | 0.1 to 1 | 0.01 to 0.1
6 | COc1cc(-c2cnc(NC(C)=O)cc2Nc2ccnc(C(C)(F)F)c2)ncn1 [Example 217, N-(4-((2-(1,1-difluoroethyl)pyridin-4-yl)amino)-5-(6-methoxypyrimidin-4-yl)pyridin-2-yl)acetamide] | ≥ 1 | 0.01 to 0.1
7 | CC(=O)Nc1cc(Nc2cc(C)nc(C(C)(F)F)n2)c(-c2ccc(C)nn2)cn1 [Example 219, N-(4-((2-(1,1-difluoroethyl)-6-methylpyrimidin-4-yl)amino)-5-(6-methylpyridazin-3-yl)pyridin-2-yl)acetamide] | ≤ 0.01 | ≤ 0.01
8 | CCc1cc(Nc2cc(NC(C)=O)ncc2-c2ccc(=O)[nH]n2)nc(C(C)(F)F)n1 [Example 221, N-(4-((2-(1,1-difluoroethyl)-6-ethylpyrimidin-4-yl)amino)-5-(6-oxo-1,6-dihydropyridazin-3-yl)pyridin-2-yl)acetamide] | ≥ 1 | 0.01 to 0.1
9 | CC(=O)Nc1cc(Nc2cc(C)nc(C(C)(F)F)n2)c(-c2cc3n(n2)CCN(C(C)=O)C3)cn1 [Example 222, N-(5-(5-acetyl-4,5,6,7-tetrahydropyrazolo[1,5-a]pyrazin-2-yl)-4-((2-(1,1-difluoroethyl)-6-methylpyrimidin-4-yl)amino)pyridin-2-yl)acetamide trifluoroacetate] | ≤ 0.01 | ≤ 0.01
10 | CC(=O)Nc1cc(Nc2cc(C)nc(C(C)(F)F)n2)c(-c2cnc(N(C)C)cn2)cn1 [Example 225, N-(4-((2-(1,1-difluoroethyl)-6-methylpyrimidin-4-yl)amino)-5-(5-(dimethylamino)pyrazin-2-yl)pyridin-2-yl)acetamide] | 0.01 to 0.1 | ≤ 0.01
11 | CC(=O)Nc1cc(Nc2cc(C)nc(C(C)(F)F)n2)c(-c2ccn(CC(C)(C)O)n2)cn1 [Example 228, N-(4-((2-(1,1-difluoroethyl)-6-methylpyrimidin-4-yl)amino)-5-(1-(2-hydroxy-2-methylpropyl)-1H-pyrazol-3-yl)pyridin-2-yl)acetamide] | ≤ 0.01 | ≤ 0.01
12 | CCOCCn1ccc(-c2cnc(NC(C)=O)cc2Nc2cc(C)nc(C(C)(F)F)n2)n1 [Example 229, N-(4-((2-(1,1-difluoroethyl)-6-methylpyrimidin-4-yl)amino)-5-(1-(2-ethoxyethyl)-1H-pyrazol-3-yl)pyridin-2-yl)acetamide] | ≤ 0.01 | ≤ 0.01
13 | COC(C)(C)Cn1ccc(-c2cnc(NC(C)=O)cc2Nc2cc(C)nc(C(C)(F)F)n2)n1 [Example 230, N-(4-((2-(1,1-difluoroethyl)-6-methylpyrimidin-4-yl)amino)-5-(1-(2-methoxy-2-methylpropyl)-1H-pyrazol-3-yl)pyridin-2-yl)acetamide] | ≤ 0.01 | ≤ 0.01
14 | COCc1cnc(-c2cnc(NC(C)=O)cc2Nc2cc(C)nc(C(C)(F)F)n2)s1 [Example 231, N-(4-((2-(1,1-difluoroethyl)-6-methylpyrimidin-4-yl)amino)-5-(5-(methoxymethyl)thiazol-2-yl)pyridin-2-yl)acetamide] | ≤ 0.01 | ≤ 0.01
15 | COCc1ncc(-c2cnc(NC(C)=O)cc2Nc2cc(C)nc(C(C)(F)F)n2)s1 [Example 232, N-(4-((2-(1,1-difluoroethyl)-6-methylpyrimidin-4-yl)amino)-5-(2-(methoxymethyl)thiazol-5-yl)pyridin-2-yl)acetamide] | ≤ 0.01 | ≤ 0.01
16 | COCc1csc(-c2cnc(NC(C)=O)cc2Nc2cc(C)nc(C(C)(F)F)n2)n1 [Example 233, N-(4-((2-(1,1-difluoroethyl)-6-methylpyrimidin-4-yl)amino)-5-(4-(methoxymethyl)thiazol-2-yl)pyridin-2-yl)acetamide] | ≤ 0.01 | ≤ 0.01
17 | CC(=O)Nc1cc(Nc2cc(C)nc(C(C)(F)F)n2)c(-c2csc(N3CCOCC3)n2)cn1 [Example 234, N-(4-((2-(1,1-difluoroethyl)-6-methylpyrimidin-4-yl)amino)-5-(2-morpholinothiazol-4-yl)pyridin-2-yl)acetamide] | ≤ 0.01 | ≤ 0.01
18 | CC(=O)Nc1cc(Nc2cc(C)nc(C(C)(F)F)n2)c(-c2ncns2)cn1 [Example 235, N-(4-((2-(1,1-difluoroethyl)-6-methylpyrimidin-4-yl)amino)-5-(1,2,4-thiadiazol-5-yl)pyridin-2-yl)acetamide] | ≤ 0.01 | ≤ 0.01
19 | CC(=O)Nc1cc(Nc2cc(C)nc(C(C)(F)F)n2)c(-c2nnc(N(C)C)s2)cn1 [Example 236, N-(4-((2-(1,1-difluoroethyl)-6-methylpyrimidin-4-yl)amino)-5-(5-(dimethylamino)-1,3,4-thiadiazol-2-yl)pyridin-2-yl)acetamide] | ≤ 0.01 | ≤ 0.01
20 | CC(=O)Nc1cc(Nc2cc(C)nc(C(C)(F)F)n2)c(-c2cn3c(n2)CN(C)CC3)cn1 [Example 239, N-(4-((2-(1,1-difluoroethyl)-6-methylpyrimidin-4-yl)amino)-5-(7-methyl-5,6,7,8-tetrahydroimidazo[1,2-a]pyrazin-2-yl)pyridin-2-yl)acetamide] | ≤ 0.01 | ≤ 0.01
21 | CC(=O)Nc1cc(Nc2cc(C)nc(C(C)(F)F)n2)c(-c2cc3n(n2)CCCN3C)cn1 [Example 240, N-(4-((2-(1,1-difluoroethyl)-6-methylpyrimidin-4-yl)amino)-5-(4-methyl-4,5,6,7-tetrahydropyrazolo[1,5-a]pyrimidin-2-yl)pyridin-2-yl)acetamide] | ≤ 0.01 | ≤ 0.01
22 | CC(=O)Nc1cc(Nc2cc(C)nc(C(C)(F)F)n2)c(-c2cc(OC(C)C)ncn2)cn1 [Example 242, N-(4-((2-(1,1-difluoroethyl)-6-methylpyrimidin-4-yl)amino)-5-(6-isopropoxypyrimidin-4-yl)pyridin-2-yl)acetamide] | 0.01 to 0.1 | ≤ 0.01
